Source: BindingDB's records for doi:10.3109/14756360903049042 (Medical University of Bialystok, 2010)
pKi: −log10 of the molar value.

What was measured:
Plasminogen = Plasminogen (Homo sapiens, UniProt P00747); assay: Amidolytic Activity Assay (Plasmin); settings: pH 7.4
Description: Determination of amidolytic activity was performed as described previously [Okada et al., Chem. Pharm. Bull., 36:1289-1297]. Detailed description of the method is given below. To 0.2 cm3 of examined compound (1−11; 0.15 M NaCl as control), buffer, and 0.1 cm^3 of enzyme solution was added: tris buffer−0.5 cm^3 (pH = 7.4); enzyme: plasmin (0.4 unit/cm^3); synthetic substrate: S-2251 (0.2 cm^3, 3 mM/dm^3).

Serine protease 1 = Serine protease 1 (Homo sapiens, UniProt P07477); assay: Amidolytic Activity Assay (Trypsin); settings: pH 7.5
Serine protease 1, sequence (P07477 whole entry): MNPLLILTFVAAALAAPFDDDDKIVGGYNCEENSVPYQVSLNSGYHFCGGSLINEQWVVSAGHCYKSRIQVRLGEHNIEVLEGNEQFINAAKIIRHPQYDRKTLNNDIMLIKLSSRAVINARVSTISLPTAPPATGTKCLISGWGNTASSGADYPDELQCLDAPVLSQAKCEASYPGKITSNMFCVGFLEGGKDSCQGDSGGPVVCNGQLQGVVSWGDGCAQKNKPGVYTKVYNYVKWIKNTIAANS
Description: Determination of amidolytic activity was performed as described previously [Okada et al., Chem. Pharm. Bull., 36:1289-1297]. Detailed description of the method is given below. […]

Plasminogen, sequence (P00747 97-580 limits assumed): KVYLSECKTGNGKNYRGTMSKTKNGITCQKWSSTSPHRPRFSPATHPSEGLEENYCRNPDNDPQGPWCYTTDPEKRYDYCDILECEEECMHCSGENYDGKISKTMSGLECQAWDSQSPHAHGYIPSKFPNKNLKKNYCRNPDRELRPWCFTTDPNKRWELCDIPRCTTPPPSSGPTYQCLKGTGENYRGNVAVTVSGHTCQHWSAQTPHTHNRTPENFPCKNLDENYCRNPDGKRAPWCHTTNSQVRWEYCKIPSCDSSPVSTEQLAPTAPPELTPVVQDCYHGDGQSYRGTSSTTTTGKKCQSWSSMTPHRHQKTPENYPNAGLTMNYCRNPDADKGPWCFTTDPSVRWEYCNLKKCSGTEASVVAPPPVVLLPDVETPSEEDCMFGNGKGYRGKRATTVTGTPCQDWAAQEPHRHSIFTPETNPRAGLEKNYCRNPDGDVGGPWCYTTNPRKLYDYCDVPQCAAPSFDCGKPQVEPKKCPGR
Plasminogen, sequence (P00747 581-810 limits assumed): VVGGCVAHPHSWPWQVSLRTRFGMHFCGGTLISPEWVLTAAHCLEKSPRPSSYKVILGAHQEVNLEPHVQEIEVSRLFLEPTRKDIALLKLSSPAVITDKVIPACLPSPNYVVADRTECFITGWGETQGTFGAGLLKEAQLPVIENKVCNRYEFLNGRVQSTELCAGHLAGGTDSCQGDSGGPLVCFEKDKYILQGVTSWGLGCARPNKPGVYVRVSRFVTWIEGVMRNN

For `C[C@H](NC(=O)[C@H](N)CO)C(=O)N[C@@H](CCCNC(=N)N)C(=O)NCCO` [H-D-Ser-Ala-Arg-NH-(CH2)2-OH (9)], the pKi (Plasminogen) was 3.14.

Work on `C[C@H](NC(=O)[C@H](N)CO)C(=O)N[C@@H](CCCNC(=N)N)C(=O)NCCCO` [H-D-Ser-Ala-Arg-NH-(CH2)3-OH (10)] yielded a pKi (Serine protease 1) of 4.82 and a pKi (Plasminogen) of 2.96.

For `C[C@H](NC(=O)[C@H](N)CO)C(=O)N[C@@H](CCCNC(=N)N)C(=O)NCCCCO` [H-D-Ser-Ala-Arg-NH-(CH2)4-OH (11)], the pKi (Serine protease 1) was 5.00 and the pKi (Plasminogen) was 3.26.

Compound `C[C@H](NC(=O)[C@H](N)CO)C(=O)N[C@@H](CCCNC(=N)N)C(=O)NCCCCCN` [H-D-Ser-Ala-Arg-NH-(CH2)5-NH2 (4)] has a pKi (Plasminogen) of 4.43.

`C[C@H](NC(=O)[C@H](N)CO)C(=O)N[C@@H](CCCNC(=N)N)C(=O)NCCCCCCN` [H-D-Ser-Ala-Arg-NH-(CH2)6-NH2 (5)] was tested, and the pKi (Serine protease 1) was 5.60 and the pKi (Plasminogen) was 3.74.

`C[C@H](NC(=O)[C@H](N)CO)C(=O)N[C@@H](CCCNC(=N)N)C(=O)NCCCCCCCN` [H-D-Ser-Ala-Arg-NH-(CH2)7-NH2 (6)] gave a pKi (Serine protease 1) of 4.52 and a pKi (Plasminogen) of 3.44.

Work on `C[C@H](NC(=O)[C@H](N)CO)C(=O)N[C@@H](CCCNC(=N)N)C(=O)NCCCCCCCCN` [H-D-Ser-Ala-Arg-NH-(CH2)8-NH2 (7)] yielded a pKi (Serine protease 1) of 5.00.

`C[C@H](NC(=O)[C@H](N)CO)C(=O)N[C@@H](CCCNC(=N)N)C(=O)NCCCCCCCCCN` [H-D-Ser-Ala-Arg-NH-(CH2)9-NH2 (8)] gave a pKi (Serine protease 1) of 5.30 and a pKi (Plasminogen) of 4.05.
